Reference: patent US20250222044A1, “LIMOSILACTOBACILLUS REUTERI GOLDGUT-LR99 AND APPLICATION THEREOF” (priority 2024, published 2025)

Tested on: Limosilactobacillus reuteri GOLDGUT-LR99
Assay: Carbon source utilization and oxidation experiment (AN Biolog micro-pore plate)
Assay type: cell-based
Conditions: substrate utilization by the strain; for Utilization (Y=OD590−OD750): 37° C. anaerobic culture for 24 hours
Procedure: The AN Biolog micro-pore plate was used for measuring the utilization and oxidation conditions of different carbon sources of Limosilactobacillus reuteri GOLDGUT-LR99, the AN microplate used nutrients and biochemical reagents, and the method included the following steps: 1 mL of Limosilactobacillus reuteri GOLDGUT-LR99 bacterial liquid of the strain to be detected at the end of logarithmic growth was pipetted and centrifuged, then the supernatant was removed, the cells was washed three times with the seed liquid and suspended with 1 mL of the seed liquid, 50 μL of the suspension was taken and diluted in 10 mL of the seed liquid, the diluent was subpacked in a Biolog plate (100 μL/pore) after mixing uniformly, and the Biolog plate with the diluent was placed in 37° C. for anaerobic culture for 24 hours. After the culture was finished, OD590 and OD750 were detected by using microplate reader, the numerical values were recorded, and the utilization conditions of carbohydrate, organic acid and other substances of the Limosilactobacillus reuteri GOLDGUT-LR99 were calculated, wherein the calculation method was as follows: Y=OD590−OD750;

Row | Molecule | Utilization (Y=OD590−OD750) | utilization effect (in words)
1 | OC[C@H]1O[C@H](O[C@H]2[C@H](O)[C@@H](O)[C@H](O)O[C@@H]2CO)[C@H](O)[C@@H](O)[C@@H]1O [Maltose] | − (when Y < 0.05, it is shown that the strain was not able to utilize this substance, marked as −) | –
2 | OC[C@H]1O[C@@](CO)(O[C@H]2O[C@H](CO)[C@@H](O)[C@H](O)[C@H]2O)[C@@H](O[C@H]2O[C@H](CO)[C@@H](O)[C@H](O)[C@H]2O)[C@@H]1O [Melezitose] | ++ (when Y > 0.1, it is shown that the strain was able to effectively utilize this substance, marked as++) | –
3 | COC(C)=O [Methyl acetate] | ++ (when Y > 0.1, it is shown that the strain was able to effectively utilize this substance, marked as++) | –
4 | COC(=O)C(C)O (stereo not shown) [Methyl lactate] | + (when 0.1 > Y > 0.05, it is shown that the strain was able to better utilize this substance, marked as +) | –
5 | CC(=O)N[C@H]1C(O)O[C@H](CO)[C@H](O)[C@@H]1O (stereo partly drawn) [N-Acetyl-D-galactosamine] | − (when Y < 0.05, it is shown that the strain was not able to utilize this substance, marked as −) | –
6 | CC(=O)N[C@H]1C(O)O[C@H](CO)[C@@H](O)[C@@H]1O (stereo partly drawn) [N-Acetyl-D-glucosamine] | − (when Y < 0.05, it is shown that the strain was not able to utilize this substance, marked as −) | –
7 | CC(=O)N[C@H]1[C@@H](O)[C@H](O)[C@@H](CO)O[C@H]1O [N-Acetyl-β-D-mannosamine] | − (when Y < 0.05, it is shown that the strain was not able to utilize this substance, marked as −) | –
8 | OC[C@H]1O[C@H](OC[C@H]2OC(O)(CO)[C@@H](O)[C@@H]2O)[C@H](O)[C@@H](O)[C@@H]1O (stereo partly shown) [Palatinose] | ++ (when Y > 0.1, it is shown that the strain was able to effectively utilize this substance, marked as++) | –
9 | CCC(=O)O [Propionic acid] | − (when Y < 0.05, it is shown that the strain was not able to utilize this substance, marked as −) | –
10 | CC(=O)C(=O)O [Pyruvic acid] | + (when 0.1 > Y > 0.05, it is shown that the strain was able to better utilize this substance, marked as +) | –
11 | OC[C@@H](O)[C@@H](O)[C@@H](O)CO [Ribitol] | − (when Y < 0.05, it is shown that the strain was not able to utilize this substance, marked as −) | –
12 | OCc1ccccc1O[C@@H]1O[C@H](CO)[C@@H](O)[C@H](O)[C@H]1O [Salicin] | − (when Y < 0.05, it is shown that the strain was not able to utilize this substance, marked as −) | –
13 | OC[C@H]1O[C@H](OC[C@H]2O[C@H](OC[C@H]3O[C@H](O[C@]4(CO)O[C@H](CO)[C@@H](O)[C@@H]4O)[C@H](O)[C@@H](O)[C@@H]3O)[C@H](O)[C@@H](O)[C@H]2O)[C@H](O)[C@@H](O)[C@H]1O [Stachyose] | + (when 0.1 > Y > 0.05, it is shown that the strain was able to better utilize this substance, marked as +) | –
14 | NC(=O)CCC(=O)O [Succinamide acid] | + (when 0.1 > Y > 0.05, it is shown that the strain was able to better utilize this substance, marked as +) | –
15 | COC(=O)CCC(=O)O [Succinic acid methyl ester] | − (when Y < 0.05, it is shown that the strain was not able to utilize this substance, marked as −) | –
16 | OC[C@H]1O[C@@](CO)(O[C@H]2O[C@H](CO)[C@@H](O)[C@H](O)[C@H]2O)[C@@H](O)[C@@H]1O [Sucrose] | − (when Y < 0.05, it is shown that the strain was not able to utilize this substance, marked as −) | –
17 | Cc1cn([C@H]2C[C@H](O)[C@@H](CO)O2)c(=O)[nH]c1=O [Thymidine] | − (when Y < 0.05, it is shown that the strain was not able to utilize this substance, marked as −) | –
18 | O=c1ccn([C@@H]2O[C@H](COP(=O)(O)O)[C@@H](O)[C@H]2O)c(=O)[nH]1 [Uridine-5′-monophosphate] | − (when Y < 0.05, it is shown that the strain was not able to utilize this substance, marked as −) | –
19 | O=c1ccn([C@@H]2O[C@H](CO)[C@@H](O)[C@H]2O)c(=O)[nH]1 [Uridine] | − (when Y < 0.05, it is shown that the strain was not able to utilize this substance, marked as −) | –
20 | OC[C@@H](O)[C@@H](O)CO [i-Erythritol] | − (when Y < 0.05, it is shown that the strain was not able to utilize this substance, marked as −) | –
21 | O[C@H]1[C@H](O)[C@@H](O)[C@H](O)[C@@H](O)[C@H]1O [m-Inositol] | + (when 0.1 > Y > 0.05, it is shown that the strain was able to better utilize this substance, marked as +) | –
22 | O=C(O)C(O)C(O)C(=O)O (stereo not shown) [m-Tartaric acid] | + (when 0.1 > Y > 0.05, it is shown that the strain was able to better utilize this substance, marked as +) | –
23 | O=C(CO)[C@@H](O[C@H]1O[C@H](CO)[C@@H](O)[C@H](O)[C@H]1O)[C@H](O)[C@H](O)CO [turanose] | – | better utilization effect

Row | Molecule | Utilization (Y=OD590−OD750) | utilization effect (in words)
24 | OC[C@H]1O[C@@H]2O[C@H]3[C@H](O)[C@@H](O)[C@@H](O[C@H]4[C@H](O)[C@@H](O)[C@@H](O[C@H]5[C@H](O)[C@@H](O)[C@@H](O[C@H]6[C@H](O)[C@@H](O)[C@@H](O[C@H]7[C@H](O)[C@@H](O)[C@@H](O[C@H]1[C@H](O)[C@H]2O)O[C@@H]7CO)O[C@@H]6CO)O[C@@H]5CO)O[C@@H]4CO)O[C@@H]3CO [α-Cyclodextrin] | ++ (when Y > 0.1, it is shown that the strain was able to effectively utilize this substance, marked as++) | –
25 | OC[C@H]1O[C@H](O)[C@H](O)[C@@H](O)[C@@H]1O [α-D-Glucose] | − (when Y < 0.05, it is shown that the strain was not able to utilize this substance, marked as −) | –
26 | OC[C@H]1O[C@@H](O[C@H]2[C@H](O)[C@@H](O)[C@@H](O)O[C@@H]2CO)[C@H](O)[C@@H](O)[C@H]1O [α-D-Lactose] | − (when Y < 0.05, it is shown that the strain was not able to utilize this substance, marked as −) | –
27 | CCC(O)C(=O)O (stereo not drawn) [α-Hydroxybutyric acid] | − (when Y < 0.05, it is shown that the strain was not able to utilize this substance, marked as −) | –
28 | O=C(O)CCC(=O)C(=O)O [α-Ketoglutaric acid] | − (when Y < 0.05, it is shown that the strain was not able to utilize this substance, marked as −) | –
29 | CCCC(=O)C(=O)O [α-Ketovaleric acid] | − (when Y < 0.05, it is shown that the strain was not able to utilize this substance, marked as −) | –
30 | COC1OC(CO)C(O)C(O)C1O [α-Methyl-D-galactoside] | − (when Y < 0.05, it is shown that the strain was not able to utilize this substance, marked as −) | –
31 | CO[C@H]1O[C@H](CO)[C@@H](O)[C@H](O)[C@H]1O [α-Methyl-D-glucoside] | − (when Y < 0.05, it is shown that the strain was not able to utilize this substance, marked as −) | –
32 | OC[C@H]1O[C@@H]2O[C@H]3[C@H](O)[C@@H](O)[C@@H](O[C@H]4[C@H](O)[C@@H](O)[C@@H](O[C@H]5[C@H](O)[C@@H](O)[C@@H](O[C@H]6[C@H](O)[C@@H](O)[C@@H](O[C@H]7[C@H](O)[C@@H](O)[C@@H](O[C@H]8[C@H](O)[C@@H](O)[C@@H](O[C@H]1[C@H](O)[C@H]2O)O[C@@H]8CO)O[C@@H]7CO)O[C@@H]6CO)O[C@@H]5CO)O[C@@H]4CO)O[C@@H]3CO [β-Cyclodextrin] | − (when Y < 0.05, it is shown that the strain was not able to utilize this substance, marked as −) | –
33 | CC(O)CC(=O)O (stereo not drawn) [β-Hydroxybutyric acid] | − (when Y < 0.05, it is shown that the strain was not able to utilize this substance, marked as −) | –
34 | CO[C@@H]1O[C@H](CO)[C@@H](O)[C@H](O)[C@H]1O [β-Methyl-D-galactoside] | − (when Y < 0.05, it is shown that the strain was not able to utilize this substance, marked as −) | –
35 | CO[C@@H]1O[C@H](CO)[C@@H](O)[C@H](O)[C@H]1O [β-Methyl-D-glucoside] | − (when Y < 0.05, it is shown that the strain was not able to utilize this substance, marked as −) | –
36 | D-Aminoglucuronate | ++ (when Y > 0.1, it is shown that the strain was able to effectively utilize this substance, marked as++) | –
37 | Dextrin | − (when Y < 0.05, it is shown that the strain was not able to utilize this substance, marked as −) | –
38 | Glycine-L-aspartic acid | − (when Y < 0.05, it is shown that the strain was not able to utilize this substance, marked as −) | –
39 | Hexanediol | − (when Y < 0.05, it is shown that the strain was not able to utilize this substance, marked as −) | –
40 | L-Alanyl-L-M-glutamate | − (when Y < 0.05, it is shown that the strain was not able to utilize this substance, marked as −) | –
41 | L-Alanyl-L-M-threonine | − (when Y < 0.05, it is shown that the strain was not able to utilize this substance, marked as −) | –
42 | L-Asparagine acid | + (when 0.1 > Y > 0.05, it is shown that the strain was able to better utilize this substance, marked as +) | –
43 | L-Glutamate salt | − (when Y < 0.05, it is shown that the strain was not able to utilize this substance, marked as −) | –
44 | L-Uracilic acid | − (when Y < 0.05, it is shown that the strain was not able to utilize this substance, marked as −) | –
45 | L-Valine + L-M-Aspartamid acid | − (when Y < 0.05, it is shown that the strain was not able to utilize this substance, marked as −) | –
46 | Maltotriose | ++ (when Y > 0.1, it is shown that the strain was able to effectively utilize this substance, marked as++) | –
